# Assay results published in patent US20170064965A1, “ANTIMICROBIAL PEPTIDES DERIVED FROM PHAGE OF ACINETOBACTER BAUMANNII AND USE THEREOF” (Hualien Tzu Chi Hospital, Buddhist Tzu Chi Medical …, priority 2015, published 2017).
# Where two headings read alike, the source gives them in different places. Where a SMILES comes first, the peptide text is derived from it.
# Legend:
# Type in all cases: cell-based
# [1] = system: Acinetobacter baumannii ATCC 17978; test: Broth microdilution MIC; details: ATCC 17978, standard strain
# Description: (§1) Determination of Minimal Inhibitory Concentration (MIC)
# (§2) In order to test the inhibitory effect of the antimicrobial peptides of the present disclosure, broth microdilution test was conducted to determine the minimal inhibition concentration (MIC) of the antimicrobial peptides against bacteria. The MIC represents the minimal concentration of the peptide which has the ability to inhibit bacteria growth completely.
# (§3) Acinetobacter baumannii strains used in the examples in the conduction of the minimal inhibitory concentration and the minimum bactericidal concentration tests are shown in Table 2.
# [2] = system: Acinetobacter baumannii ATCC 19606; test: Broth microdilution MIC; details: ATCC 19606, standard strain
# Description: as §1, §2, §3
# [3] = system: Acinetobacter baumannii BCRC 80276
# Description: (§4) Determination of Minimum Bactericidal Concentration (MBC)
# (§5) In order to find out the minimum bactericidal concentration of the antimicrobial peptides of the present disclosure against bacteria, the surface of a suitable culture medium was covered by 100 μL of antimicrobial peptides at the minimal inhibitory concentration determined above with glass beads, then the medium was cultured at 37° C. for 24 hours, thereafter, and observation was conducted for 3 days. When no colony grew, it is the indication that the bacteria have been killed.
# as §3
# [4] = system: Acinetobacter baumannii 39400
# Description: as §4, §5, §3
# [5] = system: Acinetobacter baumannii ATCC 19606CR; details: colistin-resistant
# Description: as §4, §5, §3
# [6] = system: Acinetobacter baumannii ATCC 17978CR; details: colistin-resistant
# Description: as §4, §5, §3
# [7] = system: Acinetobacter baumannii 39181
# Description: as §4, §5, §3
# [8] = system: Acinetobacter baumannii 44820
# Description: as §4, §5, §3
# [9] = system: Acinetobacter baumannii BCRC 80276; remark: listed apart in the source
# Description: as §1, §2, §3
# [10] = system: Acinetobacter baumannii 39400; remark: listed apart in the source
# Description: as §1, §2, §3
# [11] = system: Acinetobacter baumannii ATCC 19606CR; details: colistin-resistant; remark: listed apart in the source
# Description: as §1, §2, §3
# [12] = system: Acinetobacter baumannii ATCC 17978CR; details: colistin-resistant; remark: listed apart in the source
# Description: as §1, §2, §3
# [13] = system: Acinetobacter baumannii 39181; remark: listed apart in the source
# Description: as §1, §2, §3
# [14] = system: Acinetobacter baumannii 44820; remark: listed apart in the source
# Description: as §1, §2, §3
# [15] = system: Acinetobacter baumannii ATCC 17978; test: Minimum bactericidal concentration (MBC) determination; details: ATCC 17978, standard strain
# Description: as §4, §5, §3
# [16] = system: Acinetobacter baumannii ATCC 19606; test: as above; details: ATCC 19606, standard strain
# Description: as §4, §5, §3
# Acinetobacter baumannii [17] = test: Scanning electron microscope observation of bacterial destruction; details: 80 μM peptide, 1×10^9 CFU bacteria, 37° C., 1 hour
# Acinetobacter baumannii [18] = test: Broth microdilution MIC, summary in text
# Description: as §1, §2
# Acinetobacter baumannii [19] = test: MBC determination
# Description: as §4, §5
# [20] = BCRC 80276, multidrug-resistant
# [21] = Acinetobacter baumannii, summary of Table 3
# [22] = multidrug-resistant Acinetobacter baumannii
Structure (SMILES),Minimal Inhibitory Concentration (MIC) [1] [µM],Minimal Inhibitory Concentration (MIC) [2] [µM],"Minimum Bactericidal Concentration (MBC) [3, 20] [µM]","Minimum Bactericidal Concentration (MBC) ([4]; 39400, multidrug-resistant) [µM]",Minimum Bactericidal Concentration (MBC) [5] [µM],Minimum Bactericidal Concentration (MBC) [6] [µM],"Minimum Bactericidal Concentration (MBC) ([7]; 39181, multidrug-resistant) [µM]","Minimum Bactericidal Concentration (MBC) ([8]; 44820, multidrug-resistant) [µM]","Minimal Inhibitory Concentration (MIC) [9, 20] [µM]","Minimal Inhibitory Concentration (MIC) ([10]; 39400, multidrug-resistant) [µM]",Minimal Inhibitory Concentration (MIC) [11] [µM],Minimal Inhibitory Concentration (MIC) [12] [µM],"Minimal Inhibitory Concentration (MIC) ([13]; 39181, multidrug-resistant) [µM]","Minimal Inhibitory Concentration (MIC) ([14]; 44820, multidrug-resistant) [µM]",Minimum Bactericidal Concentration (MBC) [15] [µM],Minimum Bactericidal Concentration (MBC) [16] [µM],appearance of bacteria under scanning electron microscope (Acinetobacter baumannii [17]),minimal inhibitory concentration (Acinetobacter baumannii [18]; [21]) [µM],minimum bactericidal concentration (Acinetobacter baumannii [19]; [21]) [µM],other results
CC[C@H](C)[C@H](NC(=O)[C@H](C)NC(=O)[C@H](CCCCN)NC(=O)[C@H](CCC(N)=O)NC(=O)[C@@H](NC(=O)[C@H](C)NC(=O)[C@@H](NC(=O)[C@H](CC(C)C)NC(=O)[C@H](CCCCN)NC(=O)[C@H](CCC(=O)O)NC(=O)[C@H](CC(C)C)NC(=O)[C@H](C)NC(=O)[C@H](CCCCN)NC(=O)[C@@H](N)CCC(=O)O)[C@@H](C)CC)[C@@H](C)CC)C(=O)N[C@@H](CCCCN)C(=O)NCC(=O)N[C@@H](CCSC)C(=O)N[C@@H](CC(C)C)C(=O)N[C@@H](CC(N)=O)C(=O)NCC(=O)N[C@@H](Cc1c[nH]c2ccccc12)C(=O)N[C@@H](Cc1ccccc1)C(=O)N[C@H](C(=O)NCC(=O)N[C@H](C(=O)N[C@@H](Cc1ccccc1)C(=O)N[C@@H](CCCNC(=N)N)C(=O)N[C@@H](CCCNC(=N)N)C(=O)N[C@@H](CCCCN)C(=O)N[C@@H](CCCNC(=N)N)C(=O)O)C(C)C)[C@@H](C)O [LysAB2 113-145 G1] (H-EKALEKLIAIQKAIKGMLNGWFTGVFRRKR-OH; N-terminus and C-terminus assumed),8,8,8,8,16,16,8,8,8,8,16,16,8,8,8,8,–,–,–,–
CC[C@H](C)[C@H](NC(=O)[C@H](C)NC(=O)[C@H](CCCCN)NC(=O)[C@H](CCC(N)=O)NC(=O)[C@@H](NC(=O)[C@H](C)NC(=O)[C@@H](NC(=O)[C@H](CC(C)C)NC(=O)[C@H](CCCCN)NC(=O)[C@H](CCC(=O)O)NC(=O)[C@H](CC(C)C)NC(=O)[C@H](C)NC(=O)[C@H](CCCCN)NC(=O)[C@@H](N)CCC(=O)O)[C@@H](C)CC)[C@@H](C)CC)C(=O)N[C@@H](CCCCN)C(=O)NCC(=O)N[C@@H](CCSC)C(=O)N[C@@H](CC(C)C)C(=O)N[C@@H](C)C(=O)NCC(=O)N[C@@H](Cc1c[nH]c2ccccc12)C(=O)N[C@@H](Cc1ccccc1)C(=O)N[C@H](C(=O)NCC(=O)N[C@H](C(=O)N[C@@H](C)C(=O)N[C@@H](CCCNC(=N)N)C(=O)N[C@@H](CCCNC(=N)N)C(=O)N[C@@H](CCCCN)C(=O)N[C@@H](CCCNC(=N)N)C(=O)O)C(C)C)[C@@H](C)O [LysAB2 113-145 G3] (H-EKALEKLIAIQKAIKGMLAGWFTGVARRKR-OH),16,16,–,–,32,32,–,–,–,–,16,16,–,–,16,16,–,–,–,Minimum Bactericidal Concentration (MBC) ([3]; BCRC 80276): 16 µM; Minimum Bactericidal Concentration (MBC) [4]; 39400: 16 µM; Minimum Bactericidal Concentration (MBC) [7]; 39181: 16 µM; Minimum Bactericidal Concentration (MBC) [8]; 44820: 16 µM; Minimal Inhibitory Concentration (MIC) ([9]; BCRC 80276): 16 µM; Minimal Inhibitory Concentration (MIC) [10]; 39400: 16 µM; Minimal Inhibitory Concentration (MIC) [13]; 39181: 16 µM; Minimal Inhibitory Concentration (MIC) [14]; 44820: 16 µM
CC[C@H](C)[C@H](NC(=O)[C@H](C)NC(=O)[C@H](CCCCN)NC(=O)[C@H](CCC(N)=O)NC(=O)[C@@H](NC(=O)[C@H](C)NC(=O)[C@@H](NC(=O)[C@H](CC(C)C)NC(=O)[C@H](CCCCN)NC(=O)[C@H](CCC(=O)O)NC(=O)[C@H](CC(C)C)NC(=O)[C@H](C)NC(=O)[C@H](CCCCN)NC(=O)[C@H](CCC(=O)O)NC(=O)[C@@H]1CCCN1C(=O)[C@@H](N)CC(N)=O)[C@@H](C)CC)[C@@H](C)CC)C(=O)N[C@@H](CCCCN)C(=O)NCC(=O)N[C@@H](CCSC)C(=O)N[C@@H](CC(C)C)C(=O)N[C@@H](CC(N)=O)C(=O)NCC(=O)N[C@@H](Cc1c[nH]c2ccccc12)C(=O)N[C@@H](Cc1ccccc1)C(=O)N[C@H](C(=O)NCC(=O)N[C@H](C(=O)NCC(=O)N[C@@H](Cc1ccccc1)C(=O)N[C@@H](CCCNC(=N)N)C(=O)N[C@@H](CCCNC(=N)N)C(=O)N[C@@H](CCCCN)C(=O)N[C@@H](CCCNC(=N)N)C(=O)O)C(C)C)[C@@H](C)O [LysAB2 113-145 G4] (H-NPEKALEKLIAIQKAIKGMLNGWFTGVGFRRKR-OH; N-terminus and C-terminus assumed),–,4,4,4,8,8,4,4,4,4,8,8,4,4,–,4,incomplete surface and holes thereon,4,4,minimal inhibitory concentration (Acinetobacter baumannii [18]; [22]): 4 µM; minimum bactericidal concentration (Acinetobacter baumannii [19]; [22]): 4 µM
CC[C@H](C)[C@H](NC(=O)[C@H](C)NC(=O)[C@@H](NC(=O)[C@H](CCC(N)=O)NC(=O)[C@@H](NC(=O)[C@H](C)NC(=O)[C@@H](NC(=O)[C@H](CC(C)C)NC(=O)[C@@H]1CCCN1C(=O)[C@H](CCC(=O)O)NC(=O)[C@H](CC(C)C)NC(=O)[C@H](C)NC(=O)[C@H](CCCCN)NC(=O)[C@H](CCC(=O)O)NC(=O)[C@@H]1CCCN1C(=O)[C@@H](N)CC(N)=O)[C@@H](C)CC)[C@@H](C)CC)[C@@H](C)CC)C(=O)N[C@@H](CCCCN)C(=O)NCC(=O)N[C@@H](CCSC)C(=O)N[C@@H](CC(C)C)C(=O)N[C@@H](CC(N)=O)C(=O)NCC(=O)N[C@@H](Cc1c[nH]c2ccccc12)C(=O)N[C@@H](Cc1ccccc1)C(=O)N[C@H](C(=O)NCC(=O)N[C@H](C(=O)NCC(=O)N[C@@H](Cc1ccccc1)C(=O)N[C@@H](CCCNC(=N)N)C(=O)N[C@@H](CCCNC(=N)N)C(=O)N[C@@H](CCCCN)C(=O)N[C@@H](CCCNC(=N)N)C(=O)O)C(C)C)[C@@H](C)O [LysAB2 113-145] (H-NPEKALEPLIAIQIAIKGMLNGWFTGVGFRRKR-OH; N-terminus and C-terminus assumed),–,64,64,64,64,64,64,64,64,64,64,64,64,64,–,64,"surface of the bacterial body is incomplete and has holes thereon, even is broken",64,64,–
